Test results from ChEMBL document CHEMBL3638741, “Azabenzothiazole compounds, compositions and methods of use” (2014).

Biological target: Non-receptor tyrosine-protein kinase TYK2 (Homo sapiens, UniProt P29597)
Assay: Reactions were incubated at 22° C. in 384-well polypropylene microtiter plates for 30 minutes and then stopped by addition of 25 μL of an EDTA containing solution (100 mM Hepes pH 7.2, 0.015% Brij-35, 150 mM EDTA), resulting in a final EDTA concentration of 50 mM. Ki values were then determined using the Morrison tight binding model. Morrison, J. F., Biochim. Biophys. Acta. 185:269-296 (1969); William, J. W. and Morrison, J. F., Meth. Enzymol., 63:437-467 (1979).

Chain of Non-receptor tyrosine-protein kinase TYK2 (P29597 whole entry): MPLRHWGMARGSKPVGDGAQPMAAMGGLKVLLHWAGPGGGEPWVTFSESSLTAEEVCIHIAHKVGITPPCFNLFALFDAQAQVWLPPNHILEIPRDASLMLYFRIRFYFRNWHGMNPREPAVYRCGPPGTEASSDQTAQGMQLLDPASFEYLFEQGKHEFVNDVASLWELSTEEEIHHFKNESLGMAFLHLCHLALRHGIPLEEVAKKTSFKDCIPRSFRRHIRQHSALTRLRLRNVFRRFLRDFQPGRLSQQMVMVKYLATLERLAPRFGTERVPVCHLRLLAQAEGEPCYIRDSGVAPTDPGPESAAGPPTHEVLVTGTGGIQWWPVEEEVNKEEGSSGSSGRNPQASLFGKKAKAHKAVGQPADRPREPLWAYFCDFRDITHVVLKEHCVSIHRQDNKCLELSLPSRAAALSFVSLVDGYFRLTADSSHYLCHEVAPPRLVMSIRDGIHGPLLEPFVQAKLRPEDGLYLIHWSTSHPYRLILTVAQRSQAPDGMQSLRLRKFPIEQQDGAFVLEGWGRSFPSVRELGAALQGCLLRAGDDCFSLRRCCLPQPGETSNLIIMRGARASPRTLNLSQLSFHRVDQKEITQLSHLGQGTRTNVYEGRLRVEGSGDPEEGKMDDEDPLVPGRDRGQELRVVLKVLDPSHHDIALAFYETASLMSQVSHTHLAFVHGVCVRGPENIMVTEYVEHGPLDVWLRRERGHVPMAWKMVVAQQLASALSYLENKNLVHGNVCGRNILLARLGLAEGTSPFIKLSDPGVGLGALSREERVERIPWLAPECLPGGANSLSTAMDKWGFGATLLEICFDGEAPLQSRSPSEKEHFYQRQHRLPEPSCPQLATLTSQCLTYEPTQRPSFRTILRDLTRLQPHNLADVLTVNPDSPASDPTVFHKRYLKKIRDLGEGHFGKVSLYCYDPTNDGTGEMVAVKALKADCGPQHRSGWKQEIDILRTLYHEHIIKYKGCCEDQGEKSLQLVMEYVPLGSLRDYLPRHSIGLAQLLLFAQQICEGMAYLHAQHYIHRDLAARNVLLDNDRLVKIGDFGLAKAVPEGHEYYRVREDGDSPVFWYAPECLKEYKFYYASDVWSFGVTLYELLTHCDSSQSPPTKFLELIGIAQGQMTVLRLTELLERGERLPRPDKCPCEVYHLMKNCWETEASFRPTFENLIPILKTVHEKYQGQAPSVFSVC

Ki	SMILES
0.0014 µM	COC(=O)Nc1nccc2nc(-c3c(Cl)cccc3Cl)sc12
0.087 µM	OC1CN(c2cc(Nc3ncnc4nc(-c5c(Cl)cccc5Cl)sc34)ncn2)C1
